# In PubChem BioAssay AID330 (DTP/NCI, 2004):
# “And” between values parts separate entries of the source, which are not always exact repeats. Equal values may be shown once. Inconclusive results and toxic doses are left out. Peptide text beside a SMILES is read from it.
# Tested on: P388 leukemia ip, CD2F1 mice, survival T/C
# Assay: NCI In Vivo Anticancer Drug Screen. Data for tumor model P388 Leukemia (intraperitoneal) in CD2F1 (CDF1) mice
# Conditions: endpoint: median survival time, higher = longer survival
# Summary of the method: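 Mice carrying the transplanted tumor received test compound or vehicle. Survival was recorded in each group, and the value is the treated-group measurement divided by that of the vehicle-treated control group.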
# [1] = dose: 25.0 mg/kg/injection, schedule: Q01DX009 (ip), vehicle: Klucel (hydroxypropylcellulose) (HPC)
# [2] = dose: 50.0 mg/kg/injection, schedule: Q01DX009 (ip), vehicle: Klucel (hydroxypropylcellulose) (HPC)
# [3] = dose: 100.0 mg/kg/injection, schedule: Q01DX009 (ip), vehicle: Klucel (hydroxypropylcellulose) (HPC)
# [4] = dose: 60.0 mg/kg/injection, schedule: Q01DX005 (ip), vehicle: saline with Tween-80
# [5] = dose: 120.0 mg/kg/injection, schedule: Q01DX005 (ip), vehicle: saline with Tween-80
# [6] = dose: 240.0 mg/kg/injection, schedule: Q01DX005 (ip), vehicle: saline with Tween-80
# [7] = dose: 50.0 mg/kg/injection, schedule: Q01DX005 (ip), vehicle: Klucel (hydroxypropylcellulose) (HPC)
# [8] = dose: 100.0 mg/kg/injection, schedule: Q01DX005 (ip), vehicle: Klucel (hydroxypropylcellulose) (HPC)
# [9] = dose: 50.0 mg/kg/injection, schedule: Q01DX009 (ip), vehicle: saline
# [10] = dose: 7.5 mg/kg/injection, schedule: Q01DX005 (ip), vehicle: Klucel (hydroxypropylcellulose) (HPC)
# [11] = dose: 15.0 mg/kg/injection, schedule: Q01DX005 (ip), vehicle: Klucel (hydroxypropylcellulose) (HPC)
# [12] = dose: 30.0 mg/kg/injection, schedule: Q01DX005 (ip), vehicle: Klucel (hydroxypropylcellulose) (HPC)
# [13] = dose: 50.0 mg/kg/injection, schedule: Q01DX005 (ip), vehicle: saline with Tween-80
# [14] = dose: 100.0 mg/kg/injection, schedule: Q01DX005 (ip), vehicle: saline with Tween-80
# [15] = dose: 200.0 mg/kg/injection, schedule: Q01DX005 (ip), vehicle: saline with Tween-80
smiles,measurement,setting,value
O=C1c2ccccc2NC1c1ccc2ccccc2n1 (stereo not given),T/C,[1],94 % of control
same,T/C,[2],93 % of control
same,T/C,[3],86 % of control
C1=C(/C=C2\CCCc3c(-c4ccccc4)cc(-c4ccccc4)[o+]c32)CCC/C1=C\C1=C2OC(c3ccccc3)=CC(c3ccccc3)=C2CCC1,T/C,[4],102 % of control
same,T/C,[5],93 % of control
same,T/C,[6],87 % of control
O=c1[nH]c(-c2ccc(Cl)cc2)nc2sc3c(c12)CCCC3,T/C,[7],86 % of control
same,T/C,[8],90 % of control
same,T/C,"dose: 200.0 mg/kg/injection, schedule: Q01DX005 (ip), vehicle: Klucel (hydroxypropylcellulose) (HPC)",99 % of control
O=c1[nH]c2ccccc2nc1C1(F)CCCC1,T/C,[4],98 % of control
same,T/C,[5],92 % of control
same,T/C,[6],89 % of control
CCN(CC)CCNc1ccc([N+](=O)[O-])c2sc3ccccc3c(=O)c12,T/C,"dose: 6.25 mg/kg/injection, schedule: Q01DX009 (ip), vehicle: saline",104 % of control
same,T/C,"dose: 12.5 mg/kg/injection, schedule: Q01DX009 (ip), vehicle: saline",112 % of control
same,T/C,"dose: 33.0 mg/kg/injection, schedule: Q01DX009 (ip), vehicle: saline",180 % of control
same,T/C,[9],220 % of control
same,T/C,"dose: 75.0 mg/kg/injection, schedule: Q01DX009 (ip), vehicle: saline",115 % of control
same,T/C,"dose: 100.0 mg/kg/injection, schedule: Q01DX009 (ip), vehicle: saline with Tween-80",158 % of control
C#C/C=C/CC1OC(C(Br)CC)CC(OC(C)=O)C(Cl)CC1Cl (stereo not given),T/C,"dose: 3.75 mg/kg/injection, schedule: Q01DX005 (ip), vehicle: Klucel (hydroxypropylcellulose) (HPC)",97 % of control
same,T/C,[10],120 % of control
same,T/C,[11],100 % of control
same,T/C,[12],98 % of control
CCOC(=S)SC1CC2(C)C(CCC3C2CCC2(C)C(OC(C)=O)CCC32)CC1=O (stereo not given),T/C,"dose: 100.0 mg/kg/injection, schedule: Q04DX003 (ip), vehicle: saline",96 % of control
same,T/C,"dose: 200.0 mg/kg/injection, schedule: Q04DX003 (ip), vehicle: saline",92 % of control
same,T/C,"dose: 400.0 mg/kg/injection, schedule: Q04DX003 (ip), vehicle: saline",89 % of control
O=C(O)CN=C1C=CC(=NCC(=O)O)C=C1,T/C,[7],109 % of control
same,T/C,[8],108 % of control
O=NN(CCCl)C(=O)Nc1c[nH]c2ccccc12,T/C,[1],157 % of control
same,T/C,[2],159 % of control and 166 % of control
same,T/C,[3],166 % of control and 176 % of control
same,T/C,"dose: 200.0 mg/kg/injection, schedule: Q01DX009 (ip), vehicle: Klucel (hydroxypropylcellulose) (HPC)",166 % of control and 175 % of control
same,T/C,"dose: 400.0 mg/kg/injection, schedule: Q01DX009 (ip), vehicle: Klucel (hydroxypropylcellulose) (HPC)",166 % of control and 176 % of control
CC1(C)OCC2OC3OC(C)(C)OC3C(OS(C)(=O)=O)C2O1 (stereo not given),T/C,[13],98 % of control
same,T/C,[14],105 % of control
same,T/C,[15],99 % of control
COc1nc(NC2OC(CO)C(O)C(O)C2O)c(Cl)c(=O)[nH]1 (stereo not given),T/C,"dose: 60.0 mg/kg/injection, schedule: Q01DX005 (ip), vehicle: saline",97 % of control
same,T/C,"dose: 120.0 mg/kg/injection, schedule: Q01DX005 (ip), vehicle: saline",94 % of control
same,T/C,"dose: 240.0 mg/kg/injection, schedule: Q01DX005 (ip), vehicle: saline",102 % of control
Cc1c[nH]c(=O)[nH]c1=O,T/C,"dose: 32.0 mg/kg/injection, schedule: Q01DX009 (ip), vehicle: Klucel (hydroxypropylcellulose) (HPC)",99 % of control and 107 % of control
same,T/C,"dose: 32.0 mg/kg/injection, schedule: Q01DX009 (ip), vehicle: saline with Tween-80",116 % of control
same,T/C,"dose: 64.0 mg/kg/injection, schedule: Q01DX009 (ip), vehicle: Klucel (hydroxypropylcellulose) (HPC)",99 % of control and 102 % of control
same,T/C,"dose: 64.0 mg/kg/injection, schedule: Q01DX009 (ip), vehicle: saline with Tween-80",106 % of control
same,T/C,"dose: 128.0 mg/kg/injection, schedule: Q01DX009 (ip), vehicle: Klucel (hydroxypropylcellulose) (HPC)",100 % of control and 107 % of control
same,T/C,"dose: 128.0 mg/kg/injection, schedule: Q01DX009 (ip), vehicle: saline with Tween-80",111 % of control
same,T/C,"dose: 170.0 mg/kg/injection, schedule: Q04DX003 (ip), vehicle: saline with Tween-80",100 % of control
same,T/C,"dose: 170.0 mg/kg/injection, schedule: Q## X003 (ip), vehicle: saline with Tween-80",100 % of control
same,T/C,"dose: 256.0 mg/kg/injection, schedule: Q01DX009 (ip), vehicle: Klucel (hydroxypropylcellulose) (HPC)",100 % of control and 112 % of control
same,T/C,"dose: 260.0 mg/kg/injection, schedule: Q04DX003 (ip), vehicle: saline with Tween-80",94 % of control
same,T/C,"dose: 260.0 mg/kg/injection, schedule: Q## X003 (ip), vehicle: saline with Tween-80",94 % of control
same,T/C,"dose: 390.0 mg/kg/injection, schedule: Q04DX003 (ip), vehicle: saline with Tween-80",95 % of control and 98 % of control
same,T/C,"dose: 390.0 mg/kg/injection, schedule: Q## X003 (ip), vehicle: saline with Tween-80",95 % of control and 98 % of control
same,T/C,"dose: 512.0 mg/kg/injection, schedule: Q01DX009 (ip), vehicle: Klucel (hydroxypropylcellulose) (HPC)",106 % of control and 93 % of control
same,T/C,"dose: 512.0 mg/kg/injection, schedule: Q01DX009 (ip), vehicle: saline with Tween-80",98 % of control
same,T/C,"dose: 520.0 mg/kg/injection, schedule: Q04DX003 (ip), vehicle: saline with Tween-80",95 % of control and 98 % of control
same,T/C,"dose: 520.0 mg/kg/injection, schedule: Q## X003 (ip), vehicle: saline with Tween-80",95 % of control and 98 % of control
S=P(N1CCCCCC1)(N1CC1)N1CC1,T/C,"dose: 12.5 mg/kg/injection, schedule: Q04DX003 (ip), vehicle: saline with Tween-80",109 % of control
same,T/C,"dose: 16.5 mg/kg/injection, schedule: Q01DX009 (ip), vehicle: saline",108 % of control
same,T/C,"dose: 33.0 mg/kg/injection, schedule: Q04DX003 (ip), vehicle: saline sonified",109 % of control
same,T/C,"dose: 37.5 mg/kg/injection, schedule: Q01DX009 (ip), vehicle: saline",183 % of control
same,T/C,[9],95 % of control
same,T/C,"dose: 50.0 mg/kg/injection, schedule: Q04DX003 (ip), vehicle: saline sonified",118 % of control
same,T/C,"dose: 50.0 mg/kg/injection, schedule: Q04DX003 (ip), vehicle: saline with Tween-80",154 % of control
C[N+](C)(Cc1ccccc1)c1nnn[n-]1,T/C,"dose: 50.0 mg/kg/injection, schedule: Q01DX001 (ip), vehicle: Klucel (hydroxypropylcellulose) (HPC)",97 % of control
same,T/C,"dose: 100.0 mg/kg/injection, schedule: Q01DX001 (ip), vehicle: Klucel (hydroxypropylcellulose) (HPC)",95 % of control
same,T/C,"dose: 200.0 mg/kg/injection, schedule: Q01DX001 (ip), vehicle: Klucel (hydroxypropylcellulose) (HPC)",105 % of control
CC1(C)NC(=O)c2cccnc2S1,T/C,[4],89 % of control
same,T/C,[5],97 % of control
same,T/C,[6],99 % of control
C=C(C#N)CCl,T/C,"dose: 25.0 mg/kg/injection, schedule: Q01DX001 (ip), vehicle: saline with Tween-80",104 % of control
same,T/C,"dose: 50.0 mg/kg/injection, schedule: Q01DX001 (ip), vehicle: saline with Tween-80",95 % of control
NC1=C(O)C(=O)C(c2cccnc2)O1 (stereo not given),T/C,[12],102 % of control
same,T/C,"dose: 60.0 mg/kg/injection, schedule: Q01DX005 (ip), vehicle: Klucel (hydroxypropylcellulose) (HPC)",96 % of control
same,T/C,"dose: 120.0 mg/kg/injection, schedule: Q01DX005 (ip), vehicle: Klucel (hydroxypropylcellulose) (HPC)",86 % of control and 93 % of control
same,T/C,"dose: 240.0 mg/kg/injection, schedule: Q01DX005 (ip), vehicle: Klucel (hydroxypropylcellulose) (HPC)",86 % of control
O=C1CC2C(C1Nc1ccccc1)C1C(=Nc3ccccc3)C(Nc3ccccc3)=CC1N2c1ccccc1 (stereo not given),T/C,[10],100 % of control
same,T/C,[11],97 % of control
same,T/C,[12],95 % of control
FC(F)(F)c1ccc(C(Nc2nncs2)Nc2nncs2)cc1,T/C,[13],93 % of control
same,T/C,[14],96 % of control
same,T/C,[15],105 % of control
CC(C)CC(NC(=O)C(Cc1ccccc1)NC(=O)CNC(=O)CN)C(=O)O (stereo not given) (H-GGFL-OH; configuration not given here),T/C,"dose: 12.5 mg/kg/injection, schedule: Q01DX005 (ip), vehicle: water",100 % of control
same,T/C,"dose: 25.0 mg/kg/injection, schedule: Q01DX005 (ip), vehicle: water",100 % of control
same,T/C,"dose: 50.0 mg/kg/injection, schedule: Q01DX005 (ip), vehicle: water",96 % of control
same,T/C,"dose: 100.0 mg/kg/injection, schedule: Q01DX005 (ip), vehicle: water",102 % of control
same,T/C,"dose: 200.0 mg/kg/injection, schedule: Q01DX005 (ip), vehicle: water",96 % of control
